{
  "source": "patent US6379692B1",
  "about": "“Pharmaceutical composition comprising a suspension for the active ingredient” (Chauvin Pharmaceuticals Limited, priority 1997, dated 2002)",
  "experiment": "particle size by Coulter counter (100 μm tube)",
  "assay_type": "physicochemical",
  "conditions": "without the use of a viscosity-enhancing agent",
  "text": "(iii) bringing the salt solution, the aqueous suspension or dispersion and the acid into admixture whereby there is formed a precipitate of microparticles of the active ingredient wherein 90% of the microparticles are of a diameter less than about 10 μm (number) when measured by a Coulter counter (100 μm tube).\nStep (iii) may be undertaken by first bringing the salt solution into admixture with the aqueous suspension or dispersion followed by addition of the acid. However, preferably, the acid is added to the aqueous suspension/dispersion prior to addition thereto of the salt solution. Preferably, more base is then added to the suspension to neutralize the hydrophilic polymer(s). […]\nHowever, in contrast to when pre-micronized active ingredient is used, the process of the present invention whereby such fine particles are produced in situ by precipitation results in a better distribution of particle size, with the D90 at room temperature being of the order of 5-10 μm (number), preferably 7-9 μm (number) or 10-16 μm (volume), whereas for pre-micronized drug the D90 is of the order of 5-10 μm (number) or 21-24 μm (volume). […] The term “D90” as used herein with respect to particle size distribution means that 90% of the particles have a diameter, when measured by a Coulter counter (100 μm tube), of less than the quoted figure. […]",
  "data": [
    {"smiles": "Nc1nc2c(ncn2COCCO)c(=O)[nH]1", "note": "[aciclovir, 2-amino-1,9-dihydro-9-[(2-hydroxyethoxy)methyl]6H-purin-6-one]", "values": [
      {"measurement": "length of needle-shaped crystals precipitated", "result": "greater than 30 μm"}
    ]}
  ]
}
